{"source": "paper PMC5897276", "about": "“External radiation exposure, excretion, and effective half-life in ^177Lu-PSMA-targeted therapies” (EJNMMI Research, 2018)", "key": {"[1]": {"assay": "Whole-body activity measurement with external gamma probe and analysis of excreted activity", "type": "in vivo, patients", "protocol": "The analysis of the excretion of unbound ^177Lu-PSMA ligands and lutetium-177 was performed indirectly by measuring the remaining activity within the body of the patients at different time points with an external gamma probe. This has been proven to be a fast, simple, and robust method to estimate the activity within the body of the patient. The difference compared with the expected activity that can be calculated directly by the physical decay of the administered activity is assumed to be equivalent to the excreted activity.\nThe measurements were carried out in Department 2, using a cohort of 25 patients (see Table 1). The whole-body activity was measured at 0 h (before voiding, reference) and approximately at 2, 4, 12, 24, 48, and 72 h after the administration of ^177Lu-PSMA-617.\nThe remaining activity AWB in the patient at the given time point ti was determined by the following equation:1 AWBti=CAti⋅CPti/CFP, where cA(ti) and cP(ti) are the count rates (compensated for the background) at the given time point for the anterior and posterior views respectively. CFP is a patient-specific calibration factor based on a baseline measurement of each patient, performed immediately after administration of ^177Lu-PSMA-617 and before the first voiding of the bladder. This factor is calculated according to the following equation:2 CFP=CA0⋅Cp0/AP, where AP is the administered activity. This factor represents the efficiency of the detector for the spatially distributed activity and intrinsically considers the self-attenuation of the γ photons by the body of the patient.\nThe excreted activity Aex at the time point ti was calculated as the difference of the whole-body activity at the previous time point ti − 1 (corrected for decay) and the whole-body activity at the time point ti. The whole extracted activity can then be calculated as a summation:3 Aex=∑j=1iAWBti−1e^−ln2/T1/2∙ti−ti−1−AWBti,\nA 3″ × 3″-NaI (Tl) detector (Type 905-4) with multichannel analyzer and software (digiBASE, MAESTRO, Ortec, Oak Ridge, USA) was used as a measurement system. It was calibrated using americium-241, cobalt-57, cesium-137, and iodine-131 test sources, and regular quality checks were carried out. The shielded detector (collimator of 3 cm lead) was positioned 1 m above the floor, and the field of view covered the whole body of the patient. The energy window was set to 208 keV ± 27%, corresponding to approximately 3 × full width at half maximum of the energy resolution of the NaI (Tl) detector. The background was measured for 300 s without the presence of a patient. Patients were measured in anterior and posterior standing positions while holding arms close to the body at a distance of 2 m from the collimator surface. For all measurements, the acquisition time corrected for dead-time effects was set to 90 s. […] No further corrections (e.g., for pile-up or non-linearity) were applied. Statistical uncertainties of the count rate were below 1% for all measurements, as recommended by Hindorf et al.. Bi-exponential functions were fitted to the data, and the effective half-lives were calculated. The bi-exponential fit model was chosen after comparing the quality of fit of mono- and bi-exponential models using the Akaike criterion as described by Kletting et al.."}, "[2]": {"design": "method as in PMID 27089552", "details": "cited from earlier work; for Mean dose rate at 1 m: 23 patients, 7.5 GBq"}, "[3]": {"assay": "Estimation of dose to the public after discharge of the patient (Eq. 4)", "type": "in vivo, patients", "from_the_text": "The determination of the expected dose D to the public requires knowledge of the dose rate DR at the time point of the release of the patient and of the effective half-life T1/2eff. The dose D can then be calculated according to the following equation:4 D=DR∙T1/2eff/ln2.\nThis equation was originally recommended by the German Commission on Radiological Protection to conservatively estimate the dose to the public after iodine-131 therapy.\nThe data were fitted by a mono-exponential curve, and the effective half-life was calculated for the different time points: 24, 48, and 72 h (only from the data of Department 2). […] For all comparisons, the time point 48 h was chosen as the reference, because it is standard that the patients are released from the therapy ward after 48 h. Subsequently, Eq. 4 was used to determine the dose D to the public after the discharge of the patient for different time points of release (24, 48, and 72 h p. i.), substituting T1/2eff by T1/2ind (individual half-life of each patient), T1/2phys (physical half-life of ^177Lu), and T1/2max (maximum of the calculated effective half-life of the patient cohort) for different calculations. In addition, a correlation analysis (Spearman and Pearson) of the dose rate and administered activity was performed."}, "[4]": {"design": "method as in PMID 27089552", "details": "group of 7 patients; cited from earlier work"}, "[5]": {"details": "48 h p. i., 25 patients (Department 2)"}, "[6]": {"details": "72 h p. i., 25 patients (Department 2)"}, "[7]": {"details": "discharge 24 h p. i., T1/2ind (value from the 48-h measurement point)"}, "[8]": {"details": "discharge 72 h p. i., T1/2ind, 25 patients (Department 2)"}, "[9]": {"details": "discharge 72 h p. i., T1/2max, 25 patients (Department 2)"}, "[10]": {"details": "discharge 72 h p. i., T1/2phys, 25 patients (Department 2)"}}, "note": "Where “and” joins values, the source holds several entries; their conditions need not be identical. Identical values can stand only once. Like-named read-outs stand apart in the source and are kept apart here.", "data": [{"smiles": "O=C([O-])CN1CCN(CC(=O)[O-])CCN(CC(=O)NCC2CCC(C(=O)N[C@@H](Cc3ccc4ccccc4c3)C(=O)NCCCC[C@H](NC(=O)N[C@@H](CCC(=O)O)C(=O)O)C(=O)O)CC2)CCN(CC(=O)[O-])CC1.[177Lu+3]", "note": "(some centres unmarked) [^177Lu-PSMA-617]", "values": [{"measurement": "Excreted activity Aex between given time point and previous time point, mean", "setting": "[1]; [5]", "value": 219, "unit": "MBq"}, {"measurement": "Excreted activity Aex between given time point and previous time point, min", "setting": "[1]; [5]", "value": 160, "unit": "MBq"}, {"measurement": "Overall excreted activity as percentage of administered activity, max", "setting": "[1]; [5]", "value": 89, "unit": "%"}, {"measurement": "Overall excreted activity as percentage of administered activity, mean", "setting": "[1]; [5]", "value": 77, "unit": "%"}, {"measurement": "Overall excreted activity as percentage of administered activity, min", "setting": "[1]; [5]", "value": 50, "unit": "%"}, {"measurement": "Excreted activity Aex between given time point and previous time point, max", "setting": "[1]; [6]", "value": 82, "unit": "MBq"}, {"measurement": "Excreted activity Aex between given time point and previous time point, mean", "setting": "[1]; [6]", "value": 68, "unit": "MBq"}, {"measurement": "Excreted activity Aex between given time point and previous time point, min", "setting": "[1]; [6]", "value": 50, "unit": "MBq"}, {"measurement": "Overall excreted activity as percentage of administered activity, max", "setting": "[1]; [6]", "value": 89, "unit": "%"}, {"measurement": "Overall excreted activity as percentage of administered activity, mean", "setting": "[1]; [6]", "value": 78, "unit": "%"}, {"measurement": "Overall excreted activity as percentage of administered activity, min", "setting": "[1]; [6]", "value": 54, "unit": "%"}, {"measurement": "Clearance of the unbound compound from the body", "setting": "[1]; in words", "value": "rapidly cleared from the body"}, {"measurement": "Excreted activity over a period of 72 h (per therapy cycle and patient), average", "setting": "[1]; of the administered 6.6 GBq, patient cohort 2", "value": "approximately 4.8 GBq"}, {"measurement": "Mean dose rate at 1 m", "setting": "[2]; after 4 h", "value": "23 ± 6", "unit": "μSv/h"}, {"measurement": "Mean dose rate at 1 m", "setting": "[2]; after 6 h", "value": "15 ± 4", "unit": "μSv/h"}, {"measurement": "Mean dose received by close family members", "setting": "[2]; measured for 5 days post-injection with optically stimulated luminescence dosimeter, patients released 6 h p. i.", "value": "202 ± 43", "unit": "μSv"}, {"measurement": "Estimated dose to the public after 1 cycle, mean", "setting": "[3]; [7]", "value": "100 μSv and 99 μSv"}, {"measurement": "Estimated dose to the public after 1 cycle, min", "setting": "[3]; [7]", "value": 25, "unit": "μSv"}, {"measurement": "Estimated dose to the public after 1 cycle, max", "setting": "[3]; discharge 24 h p. i., T1/2max", "value": 410, "unit": "μSv"}, {"measurement": "Estimated dose to the public after 1 cycle, mean", "setting": "[3]; discharge 24 h p. i., T1/2max", "value": 208, "unit": "μSv"}, {"measurement": "Estimated dose to the public after 1 cycle, min", "setting": "[3]; discharge 24 h p. i., T1/2max", "value": 75, "unit": "μSv"}, {"measurement": "Estimated dose to the public after 1 cycle, max", "setting": "[3]; discharge 24 h p. i., T1/2phys", "value": 779, "unit": "μSv"}, {"measurement": "Estimated dose to the public after 1 cycle, mean", "setting": "[3]; discharge 24 h p. i., T1/2phys", "value": 396, "unit": "μSv"}, {"measurement": "Estimated dose to the public after 1 cycle, min", "setting": "[3]; discharge 24 h p. i., T1/2phys", "value": 142, "unit": "μSv"}, {"measurement": "Estimated dose to the public after 1 cycle, min", "setting": "[3]; discharge 48 h p. i., T1/2ind", "value": 13, "unit": "μSv"}, {"measurement": "Estimated dose to the public after 1 cycle, max", "setting": "[3]; discharge 48 h p. i., T1/2max", "value": 294, "unit": "μSv"}, {"measurement": "Estimated dose to the public after 1 cycle, mean", "setting": "[3]; discharge 48 h p. i., T1/2max", "value": 139, "unit": "μSv"}, {"measurement": "Estimated dose to the public after 1 cycle, min", "setting": "[3]; discharge 48 h p. i., T1/2max", "value": 49, "unit": "μSv"}, {"measurement": "Estimated dose to the public after 1 cycle, max", "setting": "[3]; discharge 48 h p. i., T1/2phys", "value": 560, "unit": "μSv"}, {"measurement": "Estimated dose to the public after 1 cycle, mean", "setting": "[3]; discharge 48 h p. i., T1/2phys", "value": 263, "unit": "μSv"}, {"measurement": "Estimated dose to the public after 1 cycle, min", "setting": "[3]; discharge 48 h p. i., T1/2phys", "value": 93, "unit": "μSv"}, {"measurement": "Estimated dose to the public after 1 cycle, max", "setting": "[3]; [8]", "value": 204, "unit": "μSv"}, {"measurement": "Estimated dose to the public after 1 cycle, mean", "setting": "[3]; [8]", "value": 50, "unit": "μSv"}, {"measurement": "Estimated dose to the public after 1 cycle, min", "setting": "[3]; [8]", "value": 17, "unit": "μSv"}, {"measurement": "Estimated dose to the public after 1 cycle, max", "setting": "[3]; [9]", "value": 233, "unit": "μSv"}, {"measurement": "Estimated dose to the public after 1 cycle, mean", "setting": "[3]; [9]", "value": 105, "unit": "μSv"}, {"measurement": "Estimated dose to the public after 1 cycle, min", "setting": "[3]; [9]", "value": 49, "unit": "μSv"}, {"measurement": "Estimated dose to the public after 1 cycle, max", "setting": "[3]; [10]", "value": 443, "unit": "μSv"}, {"measurement": "Estimated dose to the public after 1 cycle, mean", "setting": "[3]; [10]", "value": 200, "unit": "μSv"}, {"measurement": "Estimated dose to the public after 1 cycle, min", "setting": "[3]; [10]", "value": 93, "unit": "μSv"}, {"measurement": "Expected dose to the public per cycle of therapy", "setting": "[3]; human, in vivo", "value": "below 1 mSv"}, {"measurement": "Maximum dose to individual members of the public per treatment cycle", "setting": "[3]; patient discharged after 72 h", "value": "~ 190 ± 36 μSv"}, {"measurement": "Estimated dose to the public per cycle", "setting": "[3]; physical half-life of lutetium-177 used for the calculation (conservative approach)", "value": "below 1 mSv"}, {"measurement": "Administered activity excreted within the first 6 h, mean", "setting": "[4]", "value": 45, "unit": "%"}]}]}
